Each structure is given as a SMILES string.

From US20220110916A1, “Antioxidant and Use Thereof” (Bioradical Research Institute Corp., priority 2019, published 2022) come the findings set out here.

Series [1] can be described thus: Storage stability in pH7.4-PBS or pure water at 37° C. protected from light, residual rate by HPLC. The format is physicochemical. The settings on record: 200 μmol/l; for Residual rate (%) After 1 week / Residual rate (%) After 2 weeks: 37° C., protected from light; for Residual rate (%) Initial concentration: initial concentration (reference 100%). On the procedure:
The storage stability of edaravone, EMPO, ED2AP, and BisEp-C3 of the following formula (A) were examined. Specifically, edaravone, EMPO, ED2AP, and BisEp-C3 were dissolved in pH7.4-PBS or pure water so as to have a final concentration of 200 μmol/l to prepare dissolved solutions of these compounds. When the compounds were difficult to be dissolved, they were dissolved in an ultrasonic cleaner with warm water at 40° C.
Under the measurement conditions for HPLC described below, the initial concentration was quantified, and then each solution was stored in an oven, which was protected from light, at 37° C., and quantified under the same measurement conditions after 1 week and 2 weeks, to determine residual rate (%) with the initial concentration (100%) being a reference.
Measurement conditions for HPLC
PDA detector (Format: SPD-M20A) HPLC Assay Conditions:
Column: Atlantis dC18 5 μm (250×4.6 mm I.D.; produced by Waters)
Column temperature: 45° C.
Detection method: UV (254 nm)
Eluate A: pH3 buffer solution (adjusted to pH3 by adding phosphoric acid to 0.05M KH2PO4 aqueous solution)/methanol=90/10

In series [2] the test system is rat neuroid cells B50. Description: Toxicity evaluation, cell viability by Alamar Blue after 24 hours. The format is cell-based. The settings on record: 12.5, 25, 50, 100, or 200 μmol/l, FIG. 5. The method, then: Rat neuroid cells B50 were seeded in 12-well plates and then cultured. Edaravone (RC), ED2AP, or BisEp-C3 was added to each well so as to achieve a predetermined concentration (12.5, 25, 50, 100, or 200 μmol/l), and then incubated for 24 hours at 37° C. and 5% CO2. Cell viability in each well after the culture was measured using Alamar Blue.

The test system of series [3] is rat neuroid cells B50. Nature of the series: Alleviation of singlet oxygen (Rose Bengal + G-LED) cytotoxicity, Alamar Blue fluorescence. Format: cell-based. To be noted: 0, 12.5, 25, 50, or 100 μmol/l; 200 nmol/l RB + G-LED 5 minutes; FIG. 3. On the procedure:
Edaravone, ED2AP and BisEp-C3 were examined whether they had the function of alleviating neuronopathy. Specifically, singlet oxygen was generated by combining Rose Bengal (RB), which is a sensitizer, with green light (G-LED), and the function of alleviating the cytotoxicity of the generated singlet oxygen was examined with the cellular activity being an indicator.
First, rat neuroid cells B50 were cultured in 12-well dishes at 2×10^5 cells/well (medium: RPMI-1640 medium containing 5% FCS) overnight. After the culturing, the medium of each well was replaced with HBSS (1000 μl/well; phenol red free Ca+, Mg+) containing 200 nmol/l RB and edaravone, ED2AP, or BisEp-C3 having a predetermined concentration (0, 12.5, 25, 50, or 100 μmol/l). The dish was then irradiated with G-LED for 5 minutes to generate singlet oxygen. Thereafter, the medium of each well was replaced with 1000 μl of HBSS and Alamar Blue was added. The dish was then allowed to react for about 2 hours in an incubator at 37° C. and 5% CO2. After the reaction, fluorescence intensity (excitation wavelength: λ-560 nm, fluorescence wavelength: λ-595 nm) was measured with a plate reader (infinite200, Tecan Trading AG). In this experimental system, the higher the cellular activity, the more Alamar Blue is taken up and the higher the fluorescence intensity. As a control, fluorescence intensity was measured in the same manner except that sodium azide (Azide, NaN3) was added instead of the compounds so as to achieve a concentration of 4 mmol/l. As a negative control (NC), fluorescence intensity was measured in the same manner except that RB was not added. The relative value of the fluorescence intensity in the sample to which each compound was added was calculated with the fluorescence intensity of the negative control being 100.

Series [4] has as its system rat neuroid cells B50. Description: Toxicity evaluation on byproducts after reaction with singlet oxygen, cell viability. The settings on record: 50, 100, or 200 μmol/l reacted with RB + G-LED 525 nm in cell-free system; FIG. 6. The format is cell-based. On the procedure: In a cell-free system, the RB was added to media (50% FCS-containing RPMI-1640 media) containing edaravone, ED2AP, and BisEp-C3 having a predetermined concentration (50, 100, or 200 μmol/l) and then irradiated with LED (G-LED) at 525 nm to generate singlet oxygen, whereby reacting each compound with singlet oxygen. The cell viability was measured in the same manner as in Example 7(1), except that the culture solution after the reaction was used as a medium of the neuroid cell B50. As a negative control (NC), the cell viability was measured in the same manner except that each compound and […] were not added in the cell-free system. Further, as a control (RB), the cell viability was measured in the same manner except that each compound was not added and only […] was added in the cell-free system.

Series [5] has as its system neutrophils isolated from the peripheral blood of healthy individuals. Description: Superoxide production amount of PMA-stimulated neutrophils, CLA chemiluminescence. The settings on record: 0-200 μmol/l or 0-5000 μmol/l; PMA 100 ng/ml; control being 100; FIG. 2. Format: cell-based, human. On the procedure: For examining the reactive oxygen-eliminating effect of the antioxidant of the present invention, the superoxide produced by the neutrophils when the neutrophils isolated from the peripheral blood of healthy individuals were stimulated with PMA (phorbor-12-myristate-13-acetate) was used. The superoxide production amount was measured by chemiluminescence using CLA (2-methyl-6-pjenyl-3, 7-dihydroimidazo[1,2-a]pyrazine-3-one).
(§1) First, ED2AP, BisEp-C3, edaravone, BisEp-C1, or BisEp-C1 (H2) was added to a neutrophil of 4×10^5 cells per sample so as to achieve a predetermined concentration (0, 12.5, 25, 50, 100, or 200 μmol/l, or 0, 125, 250, 500, 1250, 2500, or 5000 μmol/l) with 5 μmol of CLA, and then the cell suspension was seeded in flat-bottomed 96-well plates. The volume of the suspension was 200 μl/well, and phenol red free Ca+, Mg+ HBSS was used as the solution. In addition, the neutrophil was stimulated by adding PMA so as to achieve a concentration of 100 ng/ml. After the stimulation, a plate reader (Envision 2104 Multilabel Reader, produced by Perkin Elmer Co., Ltd.) was used to measure the chemiluminescence value over time for 30 minutes with the PMA stimulation time being a reference. The measurement interval was 30 seconds. The sum of the chemiluminescence values obtained every 30 seconds for 30 minutes was taken as the superoxide production amount. In addition, as a control, the superoxide production amount was measured in the same manner except that each compound was not added. The relative value of the superoxide production amount when each compound was added was calculated with the superoxide production amount of the control being 100.

Series [6] shares this test system. Nature of the series: Superoxide production amount of PMA-stimulated neutrophils with PBS solutions stored for 10 days vs immediately after preparation. The format is cell-based, human. The settings on record: PBS solution stored for 10 days vs immediately after preparation; 0, 6.25, 12.5, 25, 50, 100 or 20 μmol/l; FIG. 4. On the procedure: as §1
PBS solutions of ED2AP, BisEp-C3, and edaravone were prepared in the same manner as in Example 2 and stored for 10 days. The superoxide production amount was calculated in the same manner as in Example 4 except that the PBS solution after storage was added instead of ED2AP, BisEp-C3, edaravone, BisEp-C1 or BisEp-C1 (H2) so as to achieve a predetermined concentration (0, 6.25, 12.5, 25, 50, 100 or 20 μmol/l) of ED2AP, BisEp-C3 or edaravone. Further, PBS solutions of ED2AP, BisEp-C3, and edaravone were prepared in the same manner as in Example 2, and the superoxide production amount was calculated in the same manner except that the PBS solution immediately after preparation was used. Then, the relative value of the superoxide production amount of each sample was calculated with the superoxide production amount of the sample of 0 μmol/l being 100.

As for `CC1=NN(c2ccccc2)C(=O)C1` [Edaravone, 5-methyl-2-phenyl-2,4-dihydro-3H-pyrazol-3-one, reference compound], in series [1] (Pure water), the “Residual rate (%) After 1 week” value amounted to 82.8%, the “Residual rate (%) After 2 weeks” value is 80.4% and the “Residual rate (%) Initial concentration” value was determined as 100%. For the same compound, in series [1] (pH 7.4-PBS), the “Residual rate (%) After 1 week” value is 31.2%, the “Residual rate (%) After 2 weeks” value was 0.2% and the “Residual rate (%) Initial concentration” value is on record as 100%. In addition, in the series with rat neuroid cells B50 [2], the “cytotoxicity (cell viability)” value was “not cytotoxic at any concentration”. The “recovery of the fluorescence intensity (cellular activity)” value in the series with rat neuroid cells B50 [3] is on record as “not recovered”. The “cytotoxicity of the byproducts after reaction with singlet oxygen (cell viability)” value in the series with rat neuroid cells B50 [4] is given as “not cytotoxic at any concentration”. The “relative value of the superoxide production amount” value in series [5] was “suppressed the superoxide production amount in a concentration-dependent manner”. The “superoxide-eliminating ability after storage” value in series [6] is recorded as “remarkably lowered after storage for 10 days”.
